The subject of data set [1] is mouse acute inflammation model induced by intraperitoneally transplanting Propionibacterium acnes. Description: Anti-inflammatory property evaluation assay: neutrophil count in peritoneal exudate of the P. acnes-induced mouse acute inflammation model. Format: in vivo, mouse (male BALB/c). The settings on record: for anti-inflammatory activity as compared with the RvE2 and o-BZ-RvE2 groups / number of neutrophils in peritoneal exudate as compared with P. acnes-inoculated control mice: 300 pg intraperitoneally 8 hours after P. acnes injection, FIG. 3; for number of neutrophils in peritoneal exudate as compared with P. acnes-inoculated control mice: n=3 or 4. The procedure:
The strength of the anti-inflammatory action of each compound was evaluated by using a mouse acute inflammation model induced by intraperitoneally transplanting Propionibacterium acnes.
The mouse acute inflammation model was produced using male BALB/c mice (6 to 7 weeks, obtained from Japan SLC Inc.). First, Propionibacterium acnes (P. acnes; 500 μg per mouse) subjected to heat sterilization was intraperitoneally injected into a mouse to prepare an acute inflammation model mouse. Eight or twelve hours after the injection of Propionibacterium acnes, the test compound was intraperitoneally administered to an acute inflammation model mouse. Then, 24 hours after the injection of Propionibacterium acnes, a peritoneal exudate was collected and the number of neutrophils was counted.
Then, 24 hours after the injection of Propionibacterium acnes, a peritoneal exudate was collected and the number of neutrophils was counted.
12 hours after the injection of Propionibacterium acnes, 300 fg, 300 pg, or 300 ng of RvE2 or o-BZ-RvE2, or only a solvent was independently intraperitoneally administered to acute inflammation model mice (n=3 or 4). Then, 24 hours after the injection of Propionibacterium acnes, a peritoneal exudate was collected and the number of neutrophils was counted.
300 pg of RvE2, o-BZ-RvE2, 17-deoxy-o-BZ-RvE2, 5-deoxy-o-BZ-RvE2, or 5,17-dideoxy-o-BZ-RvE2, or only a solvent was intraperitoneally administered to acute inflammation model mice 8 hours after the injection of Propionibacterium acnes (n=3 or 4). Then, 24 hours after the injection of Propionibacterium acnes, a peritoneal exudate was collected and the number of neutrophils was counted.

The nature of data set [2]: Evaluation of metabolic stability with human liver microsomes (HPLC remaining rate). The data set is classed as in vitro ADME. The settings on record: 37° C.; for temporal change in the remaining rate in the presence of human liver microsomes: 0.1 M PBS (pH 7.4), HPLC, n=3, FIG. 4; for metabolic stability / degradation by human liver microsomes (in words): Example 1, 0-6 hours, FIG. 2. The procedure:
60 μL was aliquoted from an ethanol solution (1 mg/1 mL) of the synthetic compound to be evaluated, and the solvent was removed. A 0.1 M PBS buffer (435 μL, pH 7.4), CH3CN (10 μL), an NADPH regeneration system A solution (25 μL), and an NADPH regeneration system B solution (5 μL) were added to each compound, and stirring was carried out with a vortex mixer. After incubating the obtained reaction solution at 37° C. for 5 minutes, human liver microsomes (Corning (registered trade name) UltraPool (registered trade name) HLM 150) (25 μL) were added thereto, and 80 μL of the solution was aliquoted every hour (after 0, 1, 2, 3, and 6 hours from the addition). Each of the aliquoted solutions was quenched by adding CH3CN (80 μL) and then centrifuged (10,000 rpm) for 3 minutes at room temperature. The supernatant was collected and analyzed by using HPLC (COSMOSIL 5C18-MS-II, 4.6 mm×250 mm, CH3CN/H2O/TFA=35/65/0.01, 1.0 mL/min, detection at 254 nm).
The metabolic stability of 17-deoxy-o-BZ-RvE2 and 5-deoxy-o-BZ-RvE2 with respect to human liver microsomes was investigated. Specifically, for RvE2, o-BZ-RvE2, 17-deoxy-o-BZ-RvE2, and 5-deoxy-o-BZ-RvE2, the temporal change in the remaining rate (%) was measured by HPLC in 0.1 M PBS (pH 7.4) in the presence of human liver microsomes at 37° C. (n=3).
Background: Microsomes from liver hold many membrane-bound enzymes, among them those of drug oxidation.

For data set [3] the following is noted: background statement; cited from earlier work.
The conditions of data set [4]: background statement; cited from earlier work. The source holds these as a separate data set.
[5] abbreviates: exudate collected 24 hours after injection.

Consider `CCC/C=C/c1ccccc1C/C=C/CCCCC(=O)O` [5,17-dideoxy-o-BZ-RvE2], for which the “anti-inflammatory activity as compared with the RvE2 and o-BZ-RvE2 groups” value in data set [1] (exudate at 24 hours) was “attenuated”. For the same compound, in data set [1] (setting [5]), the “number of neutrophils in peritoneal exudate as compared with P. acnes-inoculated control mice” value was “significantly decreased”.

For the compound `CC[C@@H](O)/C=C/c1ccccc1C/C=C/CCCCC(=O)O` [5-deoxy-o-BZ-RvE2], in data set [1] (exudate at 24 hours), the “anti-inflammatory activity as compared with the RvE2 and o-BZ-RvE2 groups” value is “attenuated”. In addition, the “number of neutrophils in peritoneal exudate as compared with P. acnes-inoculated control mice” value in data set [1] (setting [5]) is reported as “significantly decreased”. Moreover, in data set [2], the “temporal change in the remaining rate in the presence of human liver microsomes” value is on record as “gradually decreased as compared with RvE2”.

For `CCC(O)C=CC=CCC1CC1CC=CC=CC(O)CCCC(=O)O` (centres unmarked) [CP-RvE2], the “stability with respect to oxygen as compared with RvE2” value in data set [3] is “improved stability with respect to oxygen”. For the same compound, the metabolic stability entry in data set [4] is recorded as “insufficient metabolic stability”.

As for `CC[C@@H](O)/C=C/C=C\C/C=C\C/C=C\C=C\[C@@H](O)CCCC(=O)O` [RvE2, (5S,6E,8Z,11Z,14Z,16E,18R)-5,18-dihydroxyicosa-6,8,11,14,16-pentaenoic acid, reference compound], the “number of neutrophils in peritoneal exudate as compared with P. acnes-inoculated control mice” value in data set [1] (setting [5]) is on record as “significantly decreased”. In data set [2], the “temporal change in the remaining rate in the presence of human liver microsomes” value was “decreased with the passage of time” and the “metabolic stability / degradation by human liver microsomes (in words)” value is on record as “easily degraded”.

Take `CC[C@@H](O)/C=C/c1ccccc1C/C=C/[C@@H](O)CCCC(=O)O` [o-BZ-RvE2]: in data set [1] (setting [5]), the “number of neutrophils in peritoneal exudate as compared with P. acnes-inoculated control mice” value is “significantly decreased”. Besides, the “infiltration of neutrophils into the abdominal cavity (number of neutrophils in peritoneal exudate) as compared with solvent alone” value in data set [1] (300 pg intraperitoneally 12 hours after P. acnes injection, exudate collected 24 hours after injection, n=4, FIG. 1(a)) is reported as “significantly suppressed”. Also, the “anti-inflammatory action as compared with RvE2” value in data set [1] (300 fg, 300 pg or 300 ng intraperitoneally 12 hours after P. acnes injection, exudate at 24 hours, FIGS. 1(a) and 1(b)) was “excellent anti-inflammatory action as compared with RvE2”. The “metabolic stability / degradation by human liver microsomes (in words)” value in data set [2] is “excellent in metabolic stability”.

The values above are taken from patent US20230099067A1, “STABLE EQUIVALENT OF RESOLVIN E2” (NATIONAL UNIVERSITY CORPORATION HOKKAIDO UNIVERSITY, priority 2020, published 2023).
